Experimental findings from patent publication US20170027941A1, “Bruton's Tyrosine Kinase Inhibitor Combinations and Uses Thereof” (Pharmacyclics LLC, priority 2015, published 2017) are described below.

Common to all, as to assay type: cell-based
In one experiment the test system is pAkt. The experiment in a line: Western blot of pAkt in renal cancer cell lines. From the text: (§1) Whole cell lysates in 1× sample buffer (Invitrogen) were electrophoresed on a 4%-12% Bis-Tris gel. After transferring the proteins onto a PVDF membrane, the blot was probed by antibodies, and the signal was detected using the Odyssey imager (LI-COR Biosciences). Paired mouse and rabbit antibodies were used to probe the total protein, and the corresponding phosphorylated proteins. The effect of ibrutinib treatment, with and without EGF stimulation/induction, on various proteins was studied. A one-hour pre-treatment with ibrutinib and a 10-minute stimulation with EGF was conducted. […] As such, ibrutinib ameliorates the effect (i.e., the undesired effects) of mTOR inhibitor alone.
(§2) Cell lysates were prepared from RCC cells which were treated with different concentrations of pazopanib for overnight incubation. Antibodies that correlate to the proteins of interest were used for detection.
For orientation: Immunoblotting shows a protein as a band on a membrane.

The next experiment has as its system pERK. The experiment in a line: Western blot of pERK in renal cancer cell lines. The following applies: A498, 769-P, RENCA, ACHN; one-hour pre-treatment, 10-minute EGF stimulation.
Excerpt: as §1, §2

For another experiment, the system named is pEGFR. Kind of experiment: Western blot of pEGFR in renal cancer cell lines. The following applies: A498, 769-P, RENCA, ACHN; one-hour pre-treatment, 10-minute EGF stimulation.
Excerpt: as §1

Take `C=CC(=O)N1CCC[C@@H](n2nc(-c3ccc(Oc4ccccc4)cc3)c3c(N)ncnc32)C1` [ibrutinib, 1-((R)-3-(4-amino-3-(4-phenoxyphenyl)-1H-pyrazolo[3,4-d]pyrimidin-1-yl)piperidin-1-yl)prop-2-en-1-one]: the pAkt entry in the experiment on pAkt (A498, 769-P, RENCA, ACHN, one-hour pre-treatment, 10-minute EGF stimulation) was “limited impacts”. Further, the pERK entry with pERK is recorded as “limited impacts”. In addition, the “EGF-induced pEGFR” value with pEGFR is given as “inhibits EGF-induced pEGFR”.
In the case of `CO[C@H]1C[C@@H]2CC[C@@H](C)[C@@](O)(O2)C(=O)C(=O)N2CCCC[C@H]2C(=O)O[C@H]([C@H](C)C[C@@H]2CC[C@@H](OCCO)[C@H](OC)C2)CC(=O)[C@H](C)/C=C(\C)[C@@H](O)[C@@H](OC)C(=O)[C@H](C)C[C@H](C)/C=C/C=C/C=C/1C` [everolimus], the “pAkt (both pAkt T308 and pAkt S473)” value in the experiment with pAkt (ACHN cell line, 24 h treatment, FIG. 8) is “induced up-regulation of pAkt”.
